Like-named read-outs stand apart in the source and are kept apart here.
Legend:
[1] = biological target: T1, JAK1 (Homo sapiens, UniProt P23458); assay: JAK1 enzyme inhibition test (LANCE method); format: biochemical; conditions: for inhibition at 10 µM: read-out: Inhibitory rate (%) JAK1 10 μM; for inhibition at 1 µM / Inhibitory rate (%) JAK1 1 μM: test compound 1 μM; for inhibition at 1 µM: read-out: Inhibitory rate (%) JAK1 1 μM
T1 construct: purchased Invitrogen
Description: JAK1 Enzyme Inhibition Test
(§1) JAK1 enzyme inhibitory activity of test compounds was measured by LANCE method (PerkinElmer). First, a test compound diluted with assay buffer (50 mM HEPES (pH=7.5), 10 mM MgCl2, 1 mM EGTA, 2 mM DTT, 0.01% Tween20, 0.01% BSA) was added to 384-well plate at 2 μL each. Then, a JAK1 (Invitrogen) solution and a fluorescence-labeled peptide substrate (ULight-JAK1, PerkinElmer) solution diluted with assay buffer at 187.5 ng/mL and 300 nM, respectively were added at 2 μL each. Then, enzyme reaction was started by adding 2 μL each of ATP solution prepared with assay buffer at 150 μM. After the reaction at room temperature for 1 hr, Detection Buffer (PerkinElmer) prepared to be 20 mM EDTA, 4 nM europium-labeled anti-phosphotyrosine antibody (PerkinElmer) was added at 6 μL each. After standing at room temperature for 1 hr, fluorescence intensity (excitation wavelength 340 nm, fluorescence wavelength 665 nm, delay time 100 microsecond) was measured by a plate reader, Envision (PerkinElmer). The inhibitory activity of each compound was calculated as relative value where fluorescence intensity of a well without enzyme is considered as 100% inhibition.

[2] = biological target: T2, Tyk2 (Homo sapiens, UniProt P29597); assay: Tyk2 enzyme inhibition test (LANCE method); format: biochemical; conditions: for inhibition at 1 µM / Inhibitory rate (%) Tyk2 1 μM: test compound 1 μM; for inhibition at 1 µM: read-out: Inhibitory rate (%) Tyk2 1 μM; for inhibition at 10 µM: test compound 10 μM, read-out: Inhibitory rate (%) Tyk2 10 μM
T2 construct: purchased Invitrogen
T2 sequence (P29597 whole entry): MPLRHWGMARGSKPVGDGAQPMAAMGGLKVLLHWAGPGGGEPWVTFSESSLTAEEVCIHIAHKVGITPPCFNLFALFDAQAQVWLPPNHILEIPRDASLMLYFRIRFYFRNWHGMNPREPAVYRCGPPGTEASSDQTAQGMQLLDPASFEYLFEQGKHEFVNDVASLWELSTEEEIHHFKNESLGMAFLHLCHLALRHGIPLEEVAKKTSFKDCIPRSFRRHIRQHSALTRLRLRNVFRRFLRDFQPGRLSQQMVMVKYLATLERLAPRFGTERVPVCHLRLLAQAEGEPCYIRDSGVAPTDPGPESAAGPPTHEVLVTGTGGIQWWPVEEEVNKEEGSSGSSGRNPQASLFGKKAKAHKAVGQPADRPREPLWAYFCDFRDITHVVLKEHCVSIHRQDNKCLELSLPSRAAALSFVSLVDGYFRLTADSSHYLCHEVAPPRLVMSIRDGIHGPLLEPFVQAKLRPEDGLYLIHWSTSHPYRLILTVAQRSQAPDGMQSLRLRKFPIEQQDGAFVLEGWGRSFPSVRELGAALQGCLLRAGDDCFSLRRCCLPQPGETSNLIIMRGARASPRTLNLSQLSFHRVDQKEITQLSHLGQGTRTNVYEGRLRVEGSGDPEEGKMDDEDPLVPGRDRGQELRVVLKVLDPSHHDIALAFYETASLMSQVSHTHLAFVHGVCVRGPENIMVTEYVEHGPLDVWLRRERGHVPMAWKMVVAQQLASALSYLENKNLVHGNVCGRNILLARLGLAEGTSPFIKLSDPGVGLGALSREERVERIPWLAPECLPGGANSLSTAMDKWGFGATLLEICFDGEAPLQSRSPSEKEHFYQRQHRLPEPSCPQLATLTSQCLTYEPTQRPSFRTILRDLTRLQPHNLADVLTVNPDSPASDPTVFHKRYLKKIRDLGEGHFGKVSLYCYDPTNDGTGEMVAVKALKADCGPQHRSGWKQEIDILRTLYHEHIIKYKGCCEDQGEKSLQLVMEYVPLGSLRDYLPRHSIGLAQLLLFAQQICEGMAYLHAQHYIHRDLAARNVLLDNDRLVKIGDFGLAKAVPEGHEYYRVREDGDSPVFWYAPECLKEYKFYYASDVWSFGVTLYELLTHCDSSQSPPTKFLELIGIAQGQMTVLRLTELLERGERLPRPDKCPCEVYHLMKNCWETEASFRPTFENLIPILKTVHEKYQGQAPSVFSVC
Description: Tyk2 Enzyme Inhibition Test
as §1, with “Tyk2 enzyme” for “JAK1 enzyme”, “a Tyk2” for “a JAK1”, “at 375” for “at 187.5”, “at 30” for “at 150”

T1 sequence (P23458 whole entry): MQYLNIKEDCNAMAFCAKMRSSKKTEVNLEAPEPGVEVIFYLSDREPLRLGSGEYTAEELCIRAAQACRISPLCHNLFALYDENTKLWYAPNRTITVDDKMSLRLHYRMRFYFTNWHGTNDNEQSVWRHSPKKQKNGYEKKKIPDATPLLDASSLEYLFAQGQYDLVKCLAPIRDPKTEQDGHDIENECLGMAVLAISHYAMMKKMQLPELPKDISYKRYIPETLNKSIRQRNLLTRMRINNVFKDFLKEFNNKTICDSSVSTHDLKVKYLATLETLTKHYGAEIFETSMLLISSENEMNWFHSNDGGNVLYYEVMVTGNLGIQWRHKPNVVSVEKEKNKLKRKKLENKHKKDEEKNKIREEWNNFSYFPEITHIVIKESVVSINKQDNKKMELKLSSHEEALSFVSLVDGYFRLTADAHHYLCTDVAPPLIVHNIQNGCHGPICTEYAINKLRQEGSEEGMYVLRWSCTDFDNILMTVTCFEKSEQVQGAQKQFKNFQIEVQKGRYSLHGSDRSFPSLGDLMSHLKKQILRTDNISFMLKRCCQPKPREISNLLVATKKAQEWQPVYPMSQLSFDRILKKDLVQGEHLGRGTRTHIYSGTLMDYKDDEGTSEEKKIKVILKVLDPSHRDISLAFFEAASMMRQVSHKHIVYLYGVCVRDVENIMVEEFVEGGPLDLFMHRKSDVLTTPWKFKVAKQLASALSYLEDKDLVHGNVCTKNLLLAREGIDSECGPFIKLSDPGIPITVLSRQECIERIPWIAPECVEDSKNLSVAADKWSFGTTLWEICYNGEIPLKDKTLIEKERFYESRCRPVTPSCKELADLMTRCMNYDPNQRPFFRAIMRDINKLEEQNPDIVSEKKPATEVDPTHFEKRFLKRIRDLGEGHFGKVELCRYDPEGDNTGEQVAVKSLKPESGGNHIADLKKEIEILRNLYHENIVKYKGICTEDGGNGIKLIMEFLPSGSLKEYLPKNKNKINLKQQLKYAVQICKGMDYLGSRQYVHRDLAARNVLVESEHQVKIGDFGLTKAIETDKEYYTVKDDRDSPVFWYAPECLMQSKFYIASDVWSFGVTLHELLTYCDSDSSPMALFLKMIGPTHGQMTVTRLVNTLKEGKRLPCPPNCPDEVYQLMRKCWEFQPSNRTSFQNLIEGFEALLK

inhibition at 1 µM [2] [%] | inhibition at 1 µM [1] [%] | SMILES | also measured
100 | – | O=c1[nH]cc(Cl)c2c1c(-c1csc(CN3CCOCC3)c1)nn2-c1c(F)cccc1F [Example 203, 7-chloro-1-(2,6-difluorophenyl)-3-(5-(morpholin-4-ylmethyl)-3-thienyl)-1,5-dihydro-4H-pyrazolo[4,3-c]pyridin-4-one] | inhibition at 10 µM ([1]; test compound 10 μM (Ex. 182-220), beside Tyk2 1 μM): 81%
99 | 100 | NC(=O)c1cc(-c2nn(-c3c(F)cccc3F)c3cc[nH]c(=O)c23)cs1 [Example 38, 4-(1-(2,6-difluorophenyl)-4-oxo-4,5-dihydro-1H-pyrazolo[4,3-c]pyridin-3-yl)thiophene-2-carboxamide] | –
99 | 94 | N#CCc1ccc(-c2cn(C3CCCC3)c3c(C#N)c[nH]c(=O)c23)cc1 [Example 96, 3-(4-(cyanomethyl)phenyl)-1-cyclopentyl-4-oxo-4,5-dihydro-1H-pyrrolo[3,2-c]pyridine-7-carbonitrile] | –
91 | 55 | NC(=O)c1cc(-n2nc(C3CCCC3)c3c(Br)c[nH]c(=O)c32)cs1 [Example 67, 4-(4-bromo-3-cyclopentyl-7-oxo-6,7-dihydro-1H-pyrazolo[3,4-c]pyridin-1-yl)thiophene-2-carboxamide] | –
– | – | NS(=O)(=O)c1ccc(-c2nn(C3CCCOC3)c3cc[nH]c(=O)c23)cc1 (stereo not drawn) [Example 88, 4-(4-oxo-1-(tetrahydro-2H-pyran-3-yl)-4,5-dihydro-1H-pyrazolo[4,3-c]pyridin-3-yl)benzenesulfonamide] | Inhibitory rate (%) JAK1 1 μM [1]: 96%; Inhibitory rate (%) Tyk2 1 μM [2]: 91%
96 | 76 | CC(=O)Nc1cccc(-c2cn(C3CCCC3)c3c(C#N)c[nH]c(=O)c23)c1 [Example 130, N-(3-(7-cyano-1-cyclopentyl-4-oxo-4,5-dihydro-1H-pyrrolo[3,2-c]pyridin-3-yl)phenyl)acetamide] | –
99 | 91 | O=C1NCCN1c1ccc(-c2nn(-c3c(F)cccc3F)c3cc[nH]c(=O)c23)cc1 [Example 276, 1-(2,6-difluorophenyl)-3-(4-(2-oxoimidazolidin-1-yl)phenyl)-1,5-dihydro-4H-pyrazolo[4,3-c]pyridin-4-one] | –
99 | 96 | N#Cc1c[nH]c(=O)c2c(-c3csc(C(=O)O)c3)cn(C3CCCC3)c12 [Example 77, 4-(7-cyano-1-cyclopentyl-4-oxo-4,5-dihydro-1H-pyrrolo[3,2-c]pyridin-3-yl)thiophene-2-carboxylic acid] | –
96 | 90 | NC(=O)c1cc(-c2nn(C3CCCC3)c3c(Cl)c[nH]c(=O)c23)cs1 [Example 296, 4-(7-chloro-1-cyclopentyl-4-oxo-4,5-dihydro-1H-pyrazolo[4,3-c]pyridin-3-yl)thiophene-2-carboxamide] | –
100 | 60 | O=C(NCCO)c1ccc(-c2nn(-c3c(F)cccc3F)c3c(Cl)c[nH]c(=O)c23)cc1 [Example 232, 4-(7-chloro-1-(2,6-difluorophenyl)-4-oxo-4,5-dihydro-1H-pyrazolo[4,3-c]pyridin-3-yl)-N-(2-hydroxyethyl)benzamide] | –
98 | 53 | COCCN(C)c1ccc(-c2nn(-c3c(F)cccc3F)c3c(Cl)c[nH]c(=O)c23)cc1 [Example 241, 7-chloro-1-(2,6-difluorophenyl)-3-(4-((2-methoxyethyl)(methyl)amino)phenyl)-1,5-dihydro-4H-pyrazolo[4,3-c]pyridin-4-one] | –
99 | 93 | N#Cc1c[nH]c(=O)c2c(Nc3cccc(C(N)=O)c3)cn(C3CCCC3)c12 [Example 178, 3-((7-cyano-1-cyclopentyl-4-oxo-4,5-dihydro-1H-pyrrolo[3,2-c]pyridin-3-yl)amino)benzamide] | –
98 | 92 | O=c1[nH]ccc2c1c(-c1cccc(CO)c1)nn2-c1c(F)cccc1F [Example 278, 1-(2,6-difluorophenyl)-3-(3-(hydroxymethyl)phenyl)-1,5-dihydro-4H-pyrazolo[4,3-c]pyridin-4-one-] | –
99 | 85 | N#Cc1c[nH]c(=O)c2c(-c3cn[nH]c3)nn(-c3c(F)cccc3F)c12 [Example 228, 1-(2,6-difluorophenyl)-4-oxo-3-(1H-pyrazol-4-yl)-4,5-dihydro-1H-pyrazolo[4,3-c]pyridine-7-carbonitrile] | –
98 | 96 | O=C1CCCN1Cc1ccc(-c2nn(-c3c(F)cccc3F)c3cc[nH]c(=O)c23)cc1 [Example 275, 1-(2,6-difluorophenyl)-3-(4-((2-oxopyrrolidin-1-yl)methyl)phenyl)-1,5-dihydro-4H-pyrazolo[4,3-c]pyridin-4-one] | –
95 | 99 | NC(=O)c1cc(-c2nn(-c3c(F)cccc3F)c3c(Br)c[nH]c(=O)c23)cs1 [Example 144, 4-(7-bromo-1-(2,6-difluorophenyl)-4-oxo-4,5-dihydro-1H-pyrazolo[4,3-c]pyridin-3-yl)thiophene-2-carboxamide] | –
84 | 93 | NS(=O)(=O)c1ccc(-n2nc(C3CCCC3)c3cc[nH]c(=O)c32)cc1 [Example 75, 4-(3-cyclopentyl-7-oxo-6,7-dihydro-1H-pyrazolo[3,4-c]pyridin-1-yl)benzenesulfonamide] | –
71 | 62 | COc1cccc(-c2nn(C3CCCC3)c3cc[nH]c(=O)c23)c1 [Example 47, 1-cyclopentyl-3-(3-methoxyphenyl)-1,5-dihydro-4H-pyrazolo[4,3-c]pyridin-4-one] | –
– | – | NC(=O)c1ccc(F)c(-c2nn(-c3c(F)cccc3F)c3cc[nH]c(=O)c23)c1 [Example 267, 3-(1-(2,6-difluorophenyl)-4-oxo-4,5-dihydro-1H-pyrazolo[4,3-c]pyridin-3-yl)-4-fluorobenzamide] | inhibition at 10 µM ([1]; test compound 10 μM): 17%; inhibition at 10 µM [2]: 31%
– | – | NS(=O)(=O)c1ccc(-c2nn(C3CCCOC3)c3cc[nH]c(=O)c23)cc1 (stereo not drawn) [Example 28, 4-(4-oxo-1-(tetrahydro-2H-pyran-3-yl)-4,5-dihydro-1H-pyrazolo[4,3-c]pyridin-3-yl)benzenesulfonamide] | Inhibitory rate (%) JAK1 1 μM [1]: 99%; Inhibitory rate (%) Tyk2 1 μM [2]: 97%
97 | 56 | CC(C)Cn1cc(-c2cn(C3CCCC3)c3c(C#N)c[nH]c(=O)c23)cn1 [Example 135, 1-cyclopentyl-3-(1-isobutyl-1H-pyrazol-4-yl)-4-oxo-4,5-dihydro-1H-pyrrolo[3,2-c]pyridine-7-carbonitrile] | –
98 | 99 | NS(=O)(=O)c1ccc(-c2nn(C3CCC(O)(c4ccccc4)CC3)c3cc[nH]c(=O)c23)cc1 (stereo not drawn) [Example 174, 4-(1-(4-hydroxy-4-phenylcyclohexyl)-4-oxo-4,5-dihydro-1H-pyrazolo[4,3-c]pyridin-3-yl)benzenesulfonamide] | –
– | – | O=c1[nH]ccc2c(-c3ccccc3)nn(-c3ccccc3)c12 [Example 10, 1,3-diphenyl-1,6-dihydro-7H-pyrazolo[3,4-c]pyridin-7-one] | inhibition at 10 µM [2]: 38%

Source: US9371320B2, “Heterocyclic compound” (TAKEDA PHARMACEUTICAL COMPANY LIMITED, priority 2012, dated 2016)
